Test results from paper PMC11882969 (Nature Communications, 2025).
Where “and” joins values, the source holds several entries; their conditions need not be identical. Identical values can stand only once.

Molecular target: hCB2 (Homo sapiens, UniProt P34972)
Experiment: bioSensAll ebBRET signaling profiling, hCB2
Assay type: cell-based
Set-up: host or cells: HEK293SL cells, transient PEI transfection
Conditions: for RE, relative efficacy: vs CP-55,940; for G13 hCB2 / G15 hCB2 / Gq hCB2 / Gs hCB2: raw signal
[1] = Log [Compound] (M) not printed (line after -13)

Chain of hCB2 (P34972 whole entry): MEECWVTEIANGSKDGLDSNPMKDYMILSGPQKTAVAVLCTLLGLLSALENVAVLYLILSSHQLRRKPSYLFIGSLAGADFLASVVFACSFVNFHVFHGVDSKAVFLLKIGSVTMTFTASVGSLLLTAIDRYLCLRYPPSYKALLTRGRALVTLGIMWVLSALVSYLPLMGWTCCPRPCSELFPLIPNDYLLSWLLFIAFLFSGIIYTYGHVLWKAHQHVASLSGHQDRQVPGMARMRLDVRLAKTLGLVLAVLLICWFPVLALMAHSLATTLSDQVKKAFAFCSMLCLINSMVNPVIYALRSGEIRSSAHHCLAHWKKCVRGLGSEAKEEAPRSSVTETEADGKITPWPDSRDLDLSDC

COC(=O)C(C)(NC(=O)c1cc(C)n(-c2cccc(C(F)(F)F)c2)n1)c1cccs1 (stereo not drawn) [‘4042]
Barr2+GRK2 hCB2 (Log [Compound] (M) -4.22186): 36.6847 and 35.0372
Gi1 hCB2 (Log [Compound] (M) -4.22186): 75.671 and 56.3726
Gi2 hCB2 (Log [Compound] (M) -4.22186): 69.4439
GoB hCB2 (Log [Compound] (M) -4.22186): 52.0294 and 57.6529
Gz hCB2 (Log [Compound] (M) -4.22186): 65.903
Barr2+GRK2 hCB2 (Log [Compound] (M) -4.63927): 30.1112 and 31.9388
Gi1 hCB2 (Log [Compound] (M) -4.63927): 84.2769 and 74.9725
Gi2 hCB2 (Log [Compound] (M) -4.63927): 71.4813
GoB hCB2 (Log [Compound] (M) -4.63927): 57.2898 and 66.4321
Gz hCB2 (Log [Compound] (M) -4.63927): 53.7774
Barr2+GRK2 hCB2 (Log [Compound] (M) -5.05788): 34.1076 and 21.894
Gi1 hCB2 (Log [Compound] (M) -5.05788): 83.7031 and 72.7366
Gi2 hCB2 (Log [Compound] (M) -5.05788): 65.5506
GoB hCB2 (Log [Compound] (M) -5.05788): 61.864 and 59.6527
Gz hCB2 (Log [Compound] (M) -5.05788): 52.6347
Barr2+GRK2 hCB2 (Log [Compound] (M) -5.47381): 32.3148 and 21.944
Gi1 hCB2 (Log [Compound] (M) -5.47381): 87.9518 and 88.1124
Gi2 hCB2 (Log [Compound] (M) -5.47381): 70.9363
GoB hCB2 (Log [Compound] (M) -5.47381): 59.0585 and 62.0173
Gz hCB2 (Log [Compound] (M) -5.47381): 46.8061
Barr2+GRK2 hCB2 (Log [Compound] (M) -5.89285): 35.0413 and 26.4416
Gi1 hCB2 (Log [Compound] (M) -5.89285): 81.7804 and 90.251
Gi2 hCB2 (Log [Compound] (M) -5.89285): 70.7805
GoB hCB2 (Log [Compound] (M) -5.89285): 65.2185 and 62.9481
Gz hCB2 (Log [Compound] (M) -5.89285): 53.1772
Barr2+GRK2 hCB2 (Log [Compound] (M) -6.31878): 26.1148 and 22.8935
Gi1 hCB2 (Log [Compound] (M) -6.31878): 87.5021 and 87.0754
Gi2 hCB2 (Log [Compound] (M) -6.31878): 73.3371
GoB hCB2 (Log [Compound] (M) -6.31878): 60.7357 and 59.0239
Gz hCB2 (Log [Compound] (M) -6.31878): 50.6781
Barr2+GRK2 hCB2 (Log [Compound] (M) -6.72585): 32.0907 and 32.9383
Gi1 hCB2 (Log [Compound] (M) -6.72585): 83.1759 and 83.592
Gi2 hCB2 (Log [Compound] (M) -6.72585): 72.2081
GoB hCB2 (Log [Compound] (M) -6.72585): 57.8234 and 61.5268
Gz hCB2 (Log [Compound] (M) -6.72585): 54.4186
Barr2+GRK2 hCB2 (Log [Compound] (M) -7.14267): 30.5594 and 25.1923
Gi1 hCB2 (Log [Compound] (M) -7.14267): 86.1686 and 79.3795
Gi2 hCB2 (Log [Compound] (M) -7.14267): 59.0489
GoB hCB2 (Log [Compound] (M) -7.14267): 60.3698 and 62.0676
Gz hCB2 (Log [Compound] (M) -7.14267): 81.8754 and 46.0416
Barr2+GRK2 hCB2 (Log [Compound] (M) -7.55284): 24.7329 and 21.1444
Gi1 hCB2 (Log [Compound] (M) -7.55284): 76.7565 and 80.3516
Gi2 hCB2 (Log [Compound] (M) -7.55284): 59.4123
GoB hCB2 (Log [Compound] (M) -7.55284): 49.2391 and 57.2756
Gz hCB2 (Log [Compound] (M) -7.55284): 76.5196 and 38.421
Barr2+GRK2 hCB2 (Log [Compound] (M) -8): 20.8112 and 19.8451
Gi1 hCB2 (Log [Compound] (M) -8): 58.7695 and 64.9921
Gi2 hCB2 (Log [Compound] (M) -8): 62.9552
GoB hCB2 (Log [Compound] (M) -8): 43.3382 and 49.9051
Barr2+GRK2 hCB2 (Log [Compound] (M) -8.22186): 15.2835 and 10.4
Gi1 hCB2 (Log [Compound] (M) -8.22186): 52.319 and 51.5606
Gi2 hCB2 (Log [Compound] (M) -8.22186): 51.7297
GoB hCB2 (Log [Compound] (M) -8.22186): 36.4463 and 41.3775
Gz hCB2 (Log [Compound] (M) -8.22186): 67.5634 and 41.7257
Barr2+GRK2 hCB2 (Log [Compound] (M) -8.39794): 10.0546 and 6.052
Gi1 hCB2 (Log [Compound] (M) -8.39794): 41.3253 and 50.1024
Gi2 hCB2 (Log [Compound] (M) -8.39794): 43.6058
GoB hCB2 (Log [Compound] (M) -8.39794): 31.1707 and 34.2586
Barr2+GRK2 hCB2 (Log [Compound] (M) -8.68787): 5.6847 and 8.001
Gi1 hCB2 (Log [Compound] (M) -8.68787): 42.5968 and 33.949
Gi2 hCB2 (Log [Compound] (M) -8.68787): 35.8583
Gi2 hCB2 (Log [Compound] (M) -9.15521): 25.8008
Gi2 hCB2 (Log [Compound] (M) -9.61989): -4.618
Gi2 hCB2 (Log [Compound] (M) -10.0969): -5.163
Gi2 hCB2 (Log [Compound] (M) -10.5529): -5.566
Gi2 hCB2 (Log [Compound] (M) -11.0177): -11.8727
Gi2 hCB2 (Log [Compound] (M) -11.4949): -13.975
Gi2 hCB2 (Log [Compound] (M) -11.9208): -11.7429
Gi2 hCB2 (Log [Compound] (M) -12.3979): -12.3529
Gi2 hCB2 (Log [Compound] (M) -12.8861): -13.7415
Gi2 hCB2 (Log [Compound] (M) -13): -11.7689
Barr2+GRK2 hCB2 [1]: 1.105
Gi1 hCB2 [1]: -2.635
GoB hCB2 [1]: -0.7449
Gz hCB2 [1]: 1.526
pEC50 [95% CI] (hCB2 Barr2 + GRK2): 8.26 [8.1 – 8.5]
pEC50 [95% CI] (hCB2 Gi1): 8.58 [8.5 – 8.7]
RE, relative efficacy (hCB2 Gi1): 0.63
pEC50 [95% CI] (hCB2 Gi2): 8.90 [8.8 – 9.0]
RE, relative efficacy (hCB2 Gi2): 0.59
pEC50 [95% CI] (hCB2 GoB): 8.60 [8.5 – 8.7]
RE, relative efficacy (hCB2 GoB): 0.47
pEC50 [95% CI] (hCB2 Gz): 8.87 [8.5 – 9.3]
RE, relative efficacy (hCB2 Gz): 0.38
RE, relative efficacy (hCB2 ßarr2+GRK2): 0.82
G13 hCB2 (Log [Compound] (M) -4.22186): 669
G15 hCB2 (Log [Compound] (M) -4.22186): 923
Gq hCB2 (Log [Compound] (M) -4.22186): 1840
Gs hCB2 (Log [Compound] (M) -4.22186): 9076
G13 hCB2 (Log [Compound] (M) -4.63927): 511
G15 hCB2 (Log [Compound] (M) -4.63927): 896
Gq hCB2 (Log [Compound] (M) -4.63927): 1838
Gs hCB2 (Log [Compound] (M) -4.63927): 9146
